Holding throughout (assay): biochemical
Test [1] has as its target T1, MER (Homo sapiens, UniProt Q12866).
T1 sequence (Q12866 1-999): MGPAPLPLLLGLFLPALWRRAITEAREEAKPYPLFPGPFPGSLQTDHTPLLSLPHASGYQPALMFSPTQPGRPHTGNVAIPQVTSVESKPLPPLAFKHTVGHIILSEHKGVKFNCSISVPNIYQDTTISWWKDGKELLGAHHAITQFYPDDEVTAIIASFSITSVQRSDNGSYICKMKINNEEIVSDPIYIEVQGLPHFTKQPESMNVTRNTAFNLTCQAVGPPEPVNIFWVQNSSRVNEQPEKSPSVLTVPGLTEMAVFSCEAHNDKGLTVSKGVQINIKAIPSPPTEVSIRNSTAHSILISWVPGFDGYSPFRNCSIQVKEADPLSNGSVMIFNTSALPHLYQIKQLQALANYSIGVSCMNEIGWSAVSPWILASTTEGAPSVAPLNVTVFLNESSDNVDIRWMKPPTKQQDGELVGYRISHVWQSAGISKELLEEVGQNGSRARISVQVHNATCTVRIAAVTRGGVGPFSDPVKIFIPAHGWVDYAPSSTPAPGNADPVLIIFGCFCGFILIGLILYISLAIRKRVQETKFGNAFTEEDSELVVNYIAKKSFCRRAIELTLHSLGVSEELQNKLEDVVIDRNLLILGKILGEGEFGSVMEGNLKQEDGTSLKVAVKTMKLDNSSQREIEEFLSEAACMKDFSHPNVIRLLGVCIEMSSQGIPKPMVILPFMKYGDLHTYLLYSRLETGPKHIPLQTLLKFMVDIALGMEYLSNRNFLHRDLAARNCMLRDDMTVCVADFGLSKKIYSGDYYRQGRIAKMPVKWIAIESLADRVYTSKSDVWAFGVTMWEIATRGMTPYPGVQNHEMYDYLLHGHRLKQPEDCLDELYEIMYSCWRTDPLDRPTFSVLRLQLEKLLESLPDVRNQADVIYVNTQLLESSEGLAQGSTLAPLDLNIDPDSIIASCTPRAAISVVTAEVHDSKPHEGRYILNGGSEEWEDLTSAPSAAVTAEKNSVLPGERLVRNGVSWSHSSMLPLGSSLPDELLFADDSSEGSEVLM

In test [2] the target is FLT1 (Homo sapiens, UniProt P17948).
The target in test [3] is T2, EphB3 (Homo sapiens, UniProt P54753).
T2 sequence (P54753 1-998): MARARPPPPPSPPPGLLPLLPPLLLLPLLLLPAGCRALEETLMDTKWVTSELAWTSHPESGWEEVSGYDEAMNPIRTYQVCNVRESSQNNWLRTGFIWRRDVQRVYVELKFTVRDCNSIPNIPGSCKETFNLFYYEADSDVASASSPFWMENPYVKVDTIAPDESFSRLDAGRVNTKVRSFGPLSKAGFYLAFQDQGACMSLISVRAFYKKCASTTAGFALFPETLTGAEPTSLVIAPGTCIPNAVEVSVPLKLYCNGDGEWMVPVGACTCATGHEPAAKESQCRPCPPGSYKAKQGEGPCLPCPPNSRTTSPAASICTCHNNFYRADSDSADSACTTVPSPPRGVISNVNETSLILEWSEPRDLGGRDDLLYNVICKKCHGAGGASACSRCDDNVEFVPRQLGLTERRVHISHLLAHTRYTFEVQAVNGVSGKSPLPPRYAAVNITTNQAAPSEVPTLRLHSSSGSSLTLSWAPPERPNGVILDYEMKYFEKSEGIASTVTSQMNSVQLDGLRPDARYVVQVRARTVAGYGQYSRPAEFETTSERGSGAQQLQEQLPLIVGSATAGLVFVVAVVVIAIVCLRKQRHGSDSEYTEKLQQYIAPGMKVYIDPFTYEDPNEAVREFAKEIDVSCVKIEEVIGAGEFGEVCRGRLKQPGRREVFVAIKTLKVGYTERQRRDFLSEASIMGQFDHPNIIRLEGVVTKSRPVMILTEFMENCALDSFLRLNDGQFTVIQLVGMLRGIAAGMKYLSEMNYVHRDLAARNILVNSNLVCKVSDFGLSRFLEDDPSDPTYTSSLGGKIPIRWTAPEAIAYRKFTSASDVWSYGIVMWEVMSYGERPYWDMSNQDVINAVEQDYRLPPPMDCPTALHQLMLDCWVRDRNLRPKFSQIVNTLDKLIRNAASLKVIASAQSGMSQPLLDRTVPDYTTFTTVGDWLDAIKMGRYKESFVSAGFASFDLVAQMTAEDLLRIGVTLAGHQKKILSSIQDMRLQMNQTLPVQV

Test [4] has as its target Erk2 (Homo sapiens, UniProt P28482).
Test [5] addresses CK1d (Homo sapiens, UniProt P48730).
Test [6] has as its target T3, DYRK2 (Homo sapiens, UniProt Q92630).
T3 sequence (Q92630 1-601): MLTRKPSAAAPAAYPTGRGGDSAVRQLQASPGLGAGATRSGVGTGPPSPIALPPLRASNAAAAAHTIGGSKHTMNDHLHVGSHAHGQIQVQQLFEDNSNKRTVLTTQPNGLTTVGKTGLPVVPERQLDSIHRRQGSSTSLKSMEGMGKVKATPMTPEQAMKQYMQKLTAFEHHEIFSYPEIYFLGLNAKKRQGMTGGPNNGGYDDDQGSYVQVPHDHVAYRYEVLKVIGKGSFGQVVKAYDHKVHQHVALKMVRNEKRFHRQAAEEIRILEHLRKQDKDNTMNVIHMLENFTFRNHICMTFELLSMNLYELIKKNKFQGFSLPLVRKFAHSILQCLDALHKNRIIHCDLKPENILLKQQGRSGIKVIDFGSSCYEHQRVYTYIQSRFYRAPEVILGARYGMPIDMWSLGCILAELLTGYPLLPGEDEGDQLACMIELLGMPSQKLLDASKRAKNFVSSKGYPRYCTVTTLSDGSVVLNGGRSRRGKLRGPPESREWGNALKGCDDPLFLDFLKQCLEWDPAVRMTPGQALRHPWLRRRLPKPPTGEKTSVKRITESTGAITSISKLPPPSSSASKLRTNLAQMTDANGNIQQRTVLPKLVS

For test [7], the target named is CaMK1d (Homo sapiens, UniProt Q8IU85).

Where two headings read alike, the source gives them in different places.

Chain of Erk2 (P28482 whole entry): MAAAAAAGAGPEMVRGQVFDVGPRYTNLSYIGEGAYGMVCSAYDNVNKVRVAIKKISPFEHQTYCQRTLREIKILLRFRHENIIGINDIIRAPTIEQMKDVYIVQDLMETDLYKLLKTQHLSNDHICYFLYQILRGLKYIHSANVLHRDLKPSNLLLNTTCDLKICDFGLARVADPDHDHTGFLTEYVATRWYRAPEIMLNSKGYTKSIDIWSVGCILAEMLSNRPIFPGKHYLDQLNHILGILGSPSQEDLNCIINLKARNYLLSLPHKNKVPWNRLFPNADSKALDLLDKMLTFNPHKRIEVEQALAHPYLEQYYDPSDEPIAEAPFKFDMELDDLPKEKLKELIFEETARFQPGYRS
Chain of CaMK1d (Q8IU85 whole entry): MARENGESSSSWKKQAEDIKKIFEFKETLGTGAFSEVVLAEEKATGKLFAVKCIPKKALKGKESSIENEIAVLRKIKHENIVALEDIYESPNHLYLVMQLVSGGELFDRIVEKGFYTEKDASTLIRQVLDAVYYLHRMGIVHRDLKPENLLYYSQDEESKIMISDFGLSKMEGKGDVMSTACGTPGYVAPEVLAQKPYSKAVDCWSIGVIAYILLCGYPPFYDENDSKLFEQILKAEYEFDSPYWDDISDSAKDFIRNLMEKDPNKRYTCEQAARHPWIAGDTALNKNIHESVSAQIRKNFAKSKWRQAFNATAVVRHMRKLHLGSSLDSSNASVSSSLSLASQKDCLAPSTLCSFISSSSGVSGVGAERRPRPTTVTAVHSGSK
Chain of CK1d (P48730 whole entry): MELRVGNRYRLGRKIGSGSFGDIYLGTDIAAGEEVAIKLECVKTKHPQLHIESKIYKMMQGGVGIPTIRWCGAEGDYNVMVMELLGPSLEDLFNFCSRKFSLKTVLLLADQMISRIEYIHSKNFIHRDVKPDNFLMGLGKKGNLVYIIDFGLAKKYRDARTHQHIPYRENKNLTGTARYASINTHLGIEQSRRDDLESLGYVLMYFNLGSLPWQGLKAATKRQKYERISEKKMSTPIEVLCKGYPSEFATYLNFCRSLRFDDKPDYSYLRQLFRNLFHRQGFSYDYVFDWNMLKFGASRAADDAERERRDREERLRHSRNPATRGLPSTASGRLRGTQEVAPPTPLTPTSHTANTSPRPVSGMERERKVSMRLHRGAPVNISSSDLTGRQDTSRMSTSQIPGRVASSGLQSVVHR
Chain of FLT1 (P17948 whole entry): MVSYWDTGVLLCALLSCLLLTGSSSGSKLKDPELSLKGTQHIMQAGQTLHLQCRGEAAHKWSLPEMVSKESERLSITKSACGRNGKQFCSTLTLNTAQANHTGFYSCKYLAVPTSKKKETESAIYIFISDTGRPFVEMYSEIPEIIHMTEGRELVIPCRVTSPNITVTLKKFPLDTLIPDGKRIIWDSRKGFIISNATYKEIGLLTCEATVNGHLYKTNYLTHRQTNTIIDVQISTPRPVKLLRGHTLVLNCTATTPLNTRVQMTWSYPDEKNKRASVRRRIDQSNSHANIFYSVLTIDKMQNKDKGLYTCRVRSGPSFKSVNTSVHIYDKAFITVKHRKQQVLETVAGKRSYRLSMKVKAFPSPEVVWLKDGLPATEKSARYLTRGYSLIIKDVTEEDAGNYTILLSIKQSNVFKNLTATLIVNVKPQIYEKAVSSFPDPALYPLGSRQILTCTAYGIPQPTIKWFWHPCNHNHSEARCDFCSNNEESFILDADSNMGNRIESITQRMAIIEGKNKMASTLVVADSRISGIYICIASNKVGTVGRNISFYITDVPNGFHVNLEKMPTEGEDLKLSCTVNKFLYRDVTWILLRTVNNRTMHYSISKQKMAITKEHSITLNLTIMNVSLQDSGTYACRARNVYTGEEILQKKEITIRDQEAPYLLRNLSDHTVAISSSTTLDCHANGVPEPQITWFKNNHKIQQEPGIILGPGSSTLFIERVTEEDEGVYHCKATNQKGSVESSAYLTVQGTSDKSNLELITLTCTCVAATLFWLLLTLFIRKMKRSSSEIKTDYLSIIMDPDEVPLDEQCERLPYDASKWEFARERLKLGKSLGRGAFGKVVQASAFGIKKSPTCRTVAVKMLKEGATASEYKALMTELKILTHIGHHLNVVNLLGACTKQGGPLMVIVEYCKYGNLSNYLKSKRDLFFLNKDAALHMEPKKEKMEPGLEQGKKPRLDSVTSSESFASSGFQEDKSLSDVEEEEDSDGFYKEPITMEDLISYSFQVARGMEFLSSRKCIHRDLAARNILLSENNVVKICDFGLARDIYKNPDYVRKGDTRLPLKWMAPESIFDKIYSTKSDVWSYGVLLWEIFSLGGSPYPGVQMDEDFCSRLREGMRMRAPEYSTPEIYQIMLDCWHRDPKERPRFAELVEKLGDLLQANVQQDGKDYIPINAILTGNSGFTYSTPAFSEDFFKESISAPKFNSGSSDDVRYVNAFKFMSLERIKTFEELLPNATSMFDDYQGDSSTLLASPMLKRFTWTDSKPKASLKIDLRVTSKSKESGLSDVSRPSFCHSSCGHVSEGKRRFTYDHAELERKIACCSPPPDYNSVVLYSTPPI

Regarding `CNc1ncc2cc(-c3cc(C(F)(F)F)ccc3Cl)c(=O)n(CCCCN)c2n1` [compound 9, 8-(4-Aminobutyl)-6-(2-chloro-5-(trifluoromethyl)phenyl)-2-(methylamino)pyrido[2,3-d]pyrimidin-7(8H)-one], the ΔTm at 10 µM in test [1] (read-out: dTm 9) was 0.2 °C; in test [2] (read-out: dTm 9), 5.3 °C; in test [3] (read-out: dTm 9) it was 2.3 °C; in test [4] (read-out: dTm 9), 0 °C; in test [5] (read-out: dTm 9), 0 °C; in test [6] (read-out: dTm 9), 0 °C. Besides, the ΔTm at 10 µM in test [7] (read-out: dTm 9) was 2.3 °C.
Turning to `CNc1ncc2cc(-c3cc(Cl)ccc3Cl)c(=O)n(CCCCN)c2n1` [compound 8, 8-(4-Aminobutyl)-6-(2,5-dichlorophenyl)-2-(methylamino)pyrido[2,3-d]pyrimidin-7(8H)-one], the ΔTm at 10 µM turned out to be 0.5 °C in test [1] (read-out: dTm 8); 6 °C in test [2] (read-out: dTm 8); 4.1 °C in test [3] (read-out: dTm 8); 0.1 °C in test [4] (read-out: dTm 8); 0 °C in test [5] (read-out: dTm 8); 0.1 °C in test [6] (read-out: dTm 8). In test [7] (read-out: dTm 8), the ΔTm at 10 µM was 2.4 °C.
In the case of `CNc1ncc2cc(-c3cc(Br)ccc3Br)c(=O)n(CCCCN)c2n1` [compound 11, 8-(4-Aminobutyl)-6-(2,5-dibromophenyl)-2-(methylamino)pyrido[2,3-d]pyrimidin-7(8H)-one], the ΔTm at 10 µM worked out at 0.6 °C in test [1] (read-out: dTm 11); 5.8 °C in test [2] (read-out: dTm 11); 3 °C in test [3] (read-out: dTm 11); 0.1 °C in test [4] (read-out: dTm 11); 0 °C in test [5] (read-out: dTm 11); 0 °C in test [6] (read-out: dTm 11). Moreover, in test [7] (read-out: dTm 11), the ΔTm at 10 µM was found to be 2.3 °C.
Consider `CNc1ncc2cc(-c3cc(F)c(-c4cccc(C)n4)cc3F)c(=O)n(CCCCN)c2n1` [compound 12, 8-(4-Aminobutyl)-6-(2,5-difluoro-4-(6-methylpyridin-2-yl)phenyl)-2-(methylamino)pyrido[2,3-d]pyrimidin-7(8H)-one], for which the ΔTm at 10 µM in test [1] (read-out: dTm 12) was 1.1 °C; in test [2] (read-out: dTm 12), 2.8 °C; in test [3] (read-out: dTm 12), 2.5 °C; in test [4] (read-out: dTm 12), -1.8 °C; in test [5] (read-out: dTm 12), 0.6 °C; in test [6] (read-out: dTm 12) it was -0.2 °C. For the same molecule, the ΔTm at 10 µM in test [7] (read-out: dTm 12) came to 3.1 °C.
Turning to `CNc1ncc2cc(-c3cc(Cl)ccc3Br)c(=O)n(CCCCN)c2n1` [compound 10, 8-(4-Aminobutyl)-6-(2-bromo-5-chlorophenyl)-2-(methylamino)pyrido[2,3-d]pyrimidin-7(8H)-one], the ΔTm at 10 µM in test [1] (read-out: dTm 10) stood at 0.7 °C; in test [2] (read-out: dTm 10), 5 °C; in test [3] (read-out: dTm 10), 4.6 °C; in test [4] (read-out: dTm 10), 0.1 °C; in test [5] (read-out: dTm 10), 0 °C; in test [6] (read-out: dTm 10), 0 °C. Further, the ΔTm at 10 µM in test [7] (read-out: dTm 10) amounted to 2 °C.
